Laboratory results reported in ChEMBL document CHEMBL5113529, “Design, Synthesis, and Biological Evaluation of Dual-Target COX-2/CYP51 Inhibitors for the Treatment of Fungal Infectious Diseases” (J Med Chem, 2022).
Converted amounts (≈) assume the structure as drawn. The source made the active and inactive calls. The rule behind the calls is not given here.

Assays:
Aspergillus fumigatus = assay: Antifungal activity against Aspergillus fumigatus KM8001 assessed as fungal growth inhibition measured after 72 hrs by double dilution method; type: functional
Candida tropicalis = assay: Antifungal activity against Candida tropicalis ATCC 1369 assessed as fungal growth inhibition measured after 72 hrs by double dilution method; type: functional
Candida albicans [1] = assay: Antifungal activity against Candida albicans ATCC SC5314 assessed as fungal growth inhibition measured after 72 hrs by double dilution method; type: functional
Pichia kudriavzevii = assay: Antifungal activity against Candida krusei ATCC 6258 assessed as fungal growth inhibition measured after 72 hrs by double dilution method; type: functional
Cryptococcus neoformans = assay: Antifungal activity against Cryptococcus neoformans ZKCC 2209 assessed as fungal growth inhibition measured after 72 hrs by double dilution method; type: functional
Candida albicans [2] = assay: Antifungal activity against Candida albicans ATCC SC5314 assessed as induction of ROS production by measuring fluorescence intensity incubated for 12 hrs by KGT010-1 staining based fluorescence microscopy; type: functional, organism-based
Candida albicans [3] = assay: Antifungal activity against fluconazole -resistant Candida albicans 904 assessed as fungal growth inhibition measured after 72 hrs by double dilution method; type: functional
Candida albicans [4] = assay: Antifungal activity against fluconazole -resistant Candida albicans 901 assessed as fungal growth inhibition measured after 72 hrs by double dilution method; type: functional
Candida albicans [5] = assay: Antifungal activity against fluconazole -resistant Candida albicans 632 assessed as fungal growth inhibition measured after 72 hrs by double dilution method; type: functional
Candida albicans [6] = assay: Antifungal activity against fluconazole- resistant Candida albicans 17# assessed as fungal growth inhibition measured after 72 hrs by double dilution method; type: functional
Candida albicans [7] = assay: Antifungal activity against fluconazole -resistant Candida albicans CaR assessed as fungal growth inhibition measured after 72 hrs by double dilution method; type: functional
Candida albicans [8] = assay: Induction of mitochondrial membrane potential loss in Candida albicans ATCC SC5314 assessed as depolarized cells at 1 umol/ml incubated for 24 hrs by JC-1 staining based flow cytometry assay (reference value: 0.76 to 3.29%); type: functional; conditions: dose 1 µmol/L, at 1 µM
Candida albicans [9] = assay: Induction of mitochondrial membrane potential loss in Candida albicans ATCC SC5314 assessed as normal cells at 1 umol/ml incubated for 24 hrs by JC-1 staining based flow cytometry assay (reference value: 95.26%); type: functional; conditions: dose 1 µmol/L, at 1 µM
Candida albicans [10] = assay: Induction of apoptosis in Candida albicans ATCC SC5314 assessed as mid apoptotic cells incuabted for 24 hrs by V-FITC/PI staining based flow cytometry analysis (reference value: 1.09%); type: functional
Candida albicans [11] = assay: Induction of apoptosis in Candida albicans ATCC SC5314 assessed as normal cells incuabted for 24 hrs by V-FITC/PI staining based flow cytometry analysis (reference value: 96.78%); type: functional
Candida albicans [12] = assay: Induction of apoptosis in Candida albicans ATCC SC5314 assessed as late apoptotic cells incuabted for 24 hrs by V-FITC/PI staining based flow cytometry analysis (reference value: 0.36%); type: functional
Candida albicans [13] = assay: Induction of mitochondrial membrane potential loss in Candida albicans ATCC SC5314 assessed as polarized cells at 1 umol/ml incubated for 24 hrs by JC-1 staining based flow cytometry assay (reference value: 0.69%); type: functional; conditions: dose 1 µmol/L, at 1 µM
Candida albicans [14] = assay: Induction of apoptosis in Candida albicans ATCC SC5314 assessed as necrotic cells incuabted for 24 hrs by V-FITC/PI staining based flow cytometry analysis (reference value: 1.77%); type: functional

SMILES	MIC50 (Aspergillus fumigatus)	MIC50 (Candida tropicalis)	MIC50 (Candida albicans [1])	MIC50 (Pichia kudriavzevii)	MIC50 (Cryptococcus neoformans)	also measured
COc1ccc2cc([C@H](C)C(=O)N[C@H](Cn3ccnc3)C(=O)OC(C)C)ccc2c1	4 µg/mL (≈ 9.77 µM)	1 µg/mL (≈ 2.44 µM)	0.5 µg/mL (≈ 1.22 µM)	0.25 µg/mL (≈ 0.611 µM)	0.5 µg/mL (≈ 1.22 µM)	
COc1ccc2cc([C@H](C)C(=O)N[C@H](Cn3ccnc3)C(=O)NC3CCCCC3)ccc2c1	4 µg/mL (≈ 8.92 µM)	0.5 µg/mL (≈ 1.11 µM)	1 µg/mL (≈ 2.23 µM)	0.5 µg/mL (≈ 1.11 µM)	1 µg/mL (≈ 2.23 µM)	Activity (Candida albicans [2]): Active
CC(C)NC(=O)[C@@H](Cn1ccnc1)NC(=O)[C@@H](C)c1ccc(-c2ccccc2)c(F)c1	> 8 µg/mL	2 µg/mL (≈ 4.73 µM)	0.5 µg/mL (≈ 1.18 µM)	1 µg/mL (≈ 2.37 µM)	0.5 µg/mL (≈ 1.18 µM)	
C[C@H](C(=O)N[C@H](Cn1ccnc1)C(=O)NC1CCCCC1)c1ccc(-c2ccccc2)c(F)c1	> 8 µg/mL	1 µg/mL (≈ 2.16 µM)	2 µg/mL (≈ 4.32 µM)	2 µg/mL (≈ 4.32 µM)	4 µg/mL (≈ 8.65 µM)	
COC(=O)[C@@H](Cn1ccnc1)NC(=O)[C@@H](C)c1cccc(C(=O)c2ccccc2)c1	4 µg/mL (≈ 9.87 µM)	0.5 µg/mL (≈ 1.23 µM)	1 µg/mL (≈ 2.47 µM)	2 µg/mL (≈ 4.93 µM)	1 µg/mL (≈ 2.47 µM)	
COC(=O)[C@@H](Cn1ccnc1)NC(=O)[C@@H](C)c1ccc2cc(OC)ccc2c1	> 8 µg/mL	1 µg/mL (≈ 2.62 µM)	0.25 µg/mL (≈ 0.655 µM)	1 µg/mL (≈ 2.62 µM)	0.58 µg/mL (≈ 1.52 µM)	
C[C@H](C(=O)N[C@H](Cn1ccnc1)C(=O)NC1CCCCC1)c1cccc(C(=O)c2ccccc2)c1	> 8 µg/mL	2 µg/mL (≈ 4.23 µM)	1 µg/mL (≈ 2.12 µM)	1 µg/mL (≈ 2.12 µM)	0.5 µg/mL (≈ 1.06 µM)	
CC(=O)N1CCN(c2ccc(OCC3COC(Cn4ccnc4)(c4ccc(Cl)cc4Cl)O3)cc2)CC1 (stereo not drawn) [KETOCONAZOLE]	> 8 µg/mL	0.5 µg/mL (≈ 0.941 µM)	0.5 µg/mL (≈ 0.941 µM)	0.5 µg/mL (≈ 0.941 µM)	1 µg/mL (≈ 1.88 µM)	MIC50 (Candida albicans [3]): > 8 µg/mL; MIC50 (Candida albicans [4]): 4 µg/mL (≈ 7.53 µM); MIC50 (Candida albicans [5]): > 8 µg/mL; MIC50 (Candida albicans [6]): 4 µg/mL (≈ 7.53 µM); MIC50 (Candida albicans [7]): 4 µg/mL (≈ 7.53 µM)
COc1ccc2cc([C@H](C)C(=O)N[C@H](Cn3cncn3)C(=O)OC(C)C)ccc2c1	4 µg/mL (≈ 9.74 µM)	0.5 µg/mL (≈ 1.22 µM)	0.25 µg/mL (≈ 0.609 µM)	1 µg/mL (≈ 2.44 µM)	0.5 µg/mL (≈ 1.22 µM)	
COc1ccc2cc([C@H](C)C(=O)NC(Cn3ccnc3)C(=O)c3ccccc3)ccc2c1 (stereo partly drawn)	2 µg/mL (≈ 4.68 µM)	0.5 µg/mL (≈ 1.17 µM)	0.25 µg/mL (≈ 0.585 µM)	0.5 µg/mL (≈ 1.17 µM)	0.5 µg/mL (≈ 1.17 µM)	
CC(C)OC(=O)[C@@H](Cn1ccnc1)NC(=O)[C@@H](C)c1cccc(C(=O)c2ccccc2)c1	> 8 µg/mL	2 µg/mL (≈ 4.61 µM)	1 µg/mL (≈ 2.31 µM)	0.5 µg/mL (≈ 1.15 µM)	1 µg/mL (≈ 2.31 µM)	
COc1ccc2cc([C@H](C)C(=O)N[C@H](Cn3ccnc3)C(=O)NC(C)C)ccc2c1	4 µg/mL (≈ 9.79 µM)	1 µg/mL (≈ 2.45 µM)	0.25 µg/mL (≈ 0.612 µM)	0.25 µg/mL (≈ 0.612 µM)	0.5 µg/mL (≈ 1.22 µM)	
COC(=O)[C@@H](Cn1cncn1)NC(=O)[C@@H](C)c1ccc2cc(OC)ccc2c1	4 µg/mL (≈ 10.5 µM)	0.25 µg/mL (≈ 0.654 µM)	0.25 µg/mL (≈ 0.654 µM)	1 µg/mL (≈ 2.61 µM)	0.25 µg/mL (≈ 0.654 µM)	

More lines, main results first:

MIC50 (Aspergillus fumigatus)	MIC50 (Candida tropicalis)	MIC50 (Candida albicans [1])	MIC50 (Pichia kudriavzevii)	MIC50 (Cryptococcus neoformans)	SMILES	also measured
2 µg/mL (≈ 4.52 µM)	0.25 µg/mL (≈ 0.565 µM)	0.5 µg/mL (≈ 1.13 µM)	1 µg/mL (≈ 2.26 µM)	0.5 µg/mL (≈ 1.13 µM)	C[C@H](C(=O)NC(Cn1cncn1)C(=O)c1ccccc1)c1ccc(-c2ccccc2)c(F)c1 (stereo partly drawn)	
4 µg/mL (≈ 10.1 µM)	2 µg/mL (≈ 5.05 µM)	0.5 µg/mL (≈ 1.26 µM)	1 µg/mL (≈ 2.52 µM)	2 µg/mL (≈ 5.05 µM)	COC(=O)[C@@H](Cn1cncn1)NC(=O)[C@@H](C)c1ccc(-c2ccccc2)c(F)c1	
> 8 µg/mL	1 µg/mL (≈ 2.36 µM)	0.5 µg/mL (≈ 1.18 µM)	3 µg/mL (≈ 7.08 µM)	0.25 µg/mL (≈ 0.59 µM)	CC(C)OC(=O)[C@@H](Cn1ccnc1)NC(=O)[C@@H](C)c1ccc(-c2ccccc2)c(F)c1	
> 8 µg/mL	2 µg/mL (≈ 5.06 µM)	1 µg/mL (≈ 2.53 µM)	0.5 µg/mL (≈ 1.26 µM)	0.5 µg/mL (≈ 1.26 µM)	COC(=O)[C@@H](Cn1ccnc1)NC(=O)[C@@H](C)c1ccc(-c2ccccc2)c(F)c1	
> 8 µg/mL	0.5 µg/mL (≈ 1.13 µM)	0.5 µg/mL (≈ 1.13 µM)	0.25 µg/mL (≈ 0.566 µM)	0.5 µg/mL (≈ 1.13 µM)	C[C@H](C(=O)NC(Cn1ccnc1)C(=O)c1ccccc1)c1ccc(-c2ccccc2)c(F)c1 (stereo partly drawn)	
2 µg/mL (≈ 4.92 µM)	1 µg/mL (≈ 2.46 µM)	0.5 µg/mL (≈ 1.23 µM)	0.5 µg/mL (≈ 1.23 µM)	1 µg/mL (≈ 2.46 µM)	COC(=O)[C@@H](Cn1cncn1)NC(=O)[C@@H](C)c1cccc(C(=O)c2ccccc2)c1	Activity (Candida albicans [8]): 0.9%; Activity (Candida albicans [9]): 54.56%; Activity (Candida albicans [10]): 0.26%; Activity (Candida albicans [11]): 64.15%; Activity (Candida albicans [12]): 0.9%; Activity (Candida albicans [13]): 0.54%; Activity (Candida albicans [14]): 34.69%
4 µg/mL (≈ 8.86 µM)	0.5 µg/mL (≈ 1.11 µM)	1 µg/mL (≈ 2.21 µM)	0.5 µg/mL (≈ 1.11 µM)	1 µg/mL (≈ 2.21 µM)	C[C@H](C(=O)NC(Cn1ccnc1)C(=O)c1ccccc1)c1cccc(C(=O)c2ccccc2)c1 (stereo partly drawn)	
4 µg/mL (≈ 8.84 µM)	0.5 µg/mL (≈ 1.1 µM)	5 µg/mL (≈ 11 µM)	1 µg/mL (≈ 2.21 µM)	0.5 µg/mL (≈ 1.1 µM)	C[C@H](C(=O)NC(Cn1cncn1)C(=O)c1ccccc1)c1cccc(C(=O)c2ccccc2)c1 (stereo partly drawn)	
> 8 µg/mL	0.5 µg/mL (≈ 1.18 µM)	1 µg/mL (≈ 2.36 µM)	2 µg/mL (≈ 4.71 µM)	1 µg/mL (≈ 2.36 µM)	CC(C)OC(=O)[C@@H](Cn1cncn1)NC(=O)[C@@H](C)c1ccc(-c2ccccc2)c(F)c1	
